The results in this text go back to patent US11465990B2, “Heterocyclic antiestrogens” (SUN PHARMA ADVANCED RESEARCH COMPANY LIMITED, priority 2015, dated 2022).

Each structure is given as a SMILES string.

The subject of one assay is MCF-7 cells. The assay can be described thus: MCF-7 cell growth inhibition assay. It counts as cell-based. Conditions: Homo sapiens, MCF7, 120 h, MCF-7 cells plated in presence of estradiol (1 nM), five days incubation, Presto Blue viability. As for the experimental part: MCF-7 Cell Growth Inhibition Assay
MCF-7 cells were plated in 96 well plate in the presence of estradiol (1 nM) and incubated overnight. After 24 hours test compound was added at various concentrations and incubated for five days. On the fifth day, cell viability was evaluated using Presto Blue Cell Viability Reagent. Percentage growth inhibition was calculated as follows: 100−[(O.D. of sample)*100/O.D. of vehicle control] wherein O.D. is optical density.
On to `CC1=C(c2cccc(O)c2)C(c2ccc(/C=C\CNCCCCCCCCC(F)F)cc2)Oc2ccc(O)cc21` (stereo not shown) [Compound 46], for which the inhibition at 1 µM turned out to be 88.6%.

For the compound `COc1cccc(C2=C(C)c3cc(O)ccc3OC2c2ccc(/C=C/CNCCCCCCCCCF)cc2)c1` (stereo not shown) [Compound 47], the inhibition at 1 µM worked out at 67.4%. As for `CC1=C(c2cccc(O)c2)C(c2ccc(/C=C\CN(C)CCCCCCCCCF)cc2)Oc2ccc(O)cc21` (stereo not shown) [Compound 48], the inhibition at 1 µM worked out at 58.9%.

Consider `CC1=C(c2cccc(O)c2)C(c2ccc(/C=C/CNCCCCCCCCF)cc2)Oc2ccc(O)cc21` (stereo not shown) [Compound 49], for which the inhibition at 1 µM came to 67.3%. Regarding `CC1=C(c2cccc(O)c2)C(c2ccc(/C=C\CNCCCCCCCCF)cc2)Oc2ccc(O)cc21` (stereo not shown) [Compound 50], the inhibition at 1 µM was 57.3%. Take `CC1=C(c2cccc(O)c2)C(c2ccc(C#CCNCCCCCCCCF)cc2)Oc2ccc(O)cc21` (stereo not shown) [Compound 51]: the inhibition at 1 µM came out at 61.1%. As to `CC1=C(c2cccc(O)c2)C(c2ccc(C#CCNCCCCCCCCCCF)cc2)Oc2ccc(O)cc21` (stereo not shown) [Compound 52], the inhibition at 1 µM was 74.3%. In the case of `CC1=C(c2cccc(O)c2)C(c2ccc(C#CCN(C)CCCCCCCCCF)cc2)Oc2ccc(O)cc21` (stereo not shown) [Compound 53], the inhibition at 1 µM came out at 38.6%. Still for that read-out and setting: for `CC1=C(c2cccc(O)c2)C(c2ccc(C#CCNCCCCCCCCC(F)F)cc2)Oc2ccc(O)cc21` (stereo not shown) [Compound 54] the value was 67.5%; for `CC1=C(c2cccc(O)c2)C(c2ccc(C#CCN3CCC(F)(F)C3)cc2)Oc2ccc(O)cc21` (stereo not shown) [Compound 56], 44.9%; for `CC1=C(c2cccc(O)c2)C(c2ccc(/C=C\CN3CCC(F)(F)C3)cc2)Oc2ccc(O)cc21` (stereo not shown) [Compound 57], 24.3%. As for `CC1=C(c2cccc(O)c2)C(c2ccc(/C=C/CN3CCC(F)(F)C3)cc2)Oc2ccc(O)cc21` (stereo not shown) [Compound 58], the inhibition at 1 µM is 37.9%. As to `CC1=C(c2cccc(O)c2)C(c2ccc(/C=C/CN3CC[C@@H](CF)C3)cc2)Oc2ccc(O)cc21` (stereo partly shown) [Compound 59], the inhibition at 1 µM was determined as 73.5%.

As for `CC1=C(c2cccc(O)c2)C(c2ccc(/C=C/CN3CC[C@@H](CO)C3)cc2)Oc2ccc(O)cc21` (stereo partly shown) [Compound 60], the inhibition at 1 µM came to 55%. Still for that read-out and setting: as for `CC1=C(c2cccc(O)c2)C(c2ccc(C#CCNCCCCOCCCCF)cc2)Oc2ccc(O)cc21` (stereo not shown) [Compound 61], the figure is 39.3%. Take `CC1=C(c2cccc(O)c2)C(c2ccc(/C=C\CNCCCCOCCCCF)cc2)Oc2ccc(O)cc21` (stereo not shown) [Compound 62]: the inhibition at 1 µM came to 53.1%.

For the compound `CC1=C(c2cccc(O)c2)C(c2ccc(/C=C/CNCCCCOCCCCF)cc2)Oc2ccc(O)cc21` (stereo not shown) [Compound 63], the inhibition at 1 µM is 41.8%. Still for that read-out and setting: as for `CC1=C(c2cccc(O)c2)C(c2ccc(C#CCN3CC[C@@H](CF)C3)cc2)Oc2ccc(O)cc21` (stereo partly shown) [Compound 64], the figure is 47.2%; as for `CC1=C(c2cccc(O)c2)C(c2ccc(/C=C/CN3CCC(C(F)(F)F)C3)cc2)Oc2ccc(O)cc21` (stereo not shown) [Compound 65], 55.4%; as for `CC1=C(c2cccc(O)c2)C(c2ccc(/C=C\CN3CCC(C(F)(F)F)C3)cc2)Oc2ccc(O)cc21` (stereo not shown) [Compound 66], 12.9%. With `CC1=C(c2cccc(O)c2)C(c2ccc(/C=C\CN3CCC(CF)(CF)C3)cc2)Oc2ccc(O)cc21` (stereo not shown) [Compound 67], the inhibition at 1 µM is 30.1%. Take `CC1=C(c2cccc(O)c2)C(c2ccc(/C=C/CN(C)CCCCCCCCC(F)F)cc2)Oc2ccc(O)cc21` (stereo not shown) [Compound 70]: the inhibition at 1 µM was determined as 16.9%.

For the compound `CC1=C(c2cccc(O)c2)C(c2ccc(/C=C\CN(C)CCCCCCCCC(F)F)cc2)Oc2ccc(O)cc21` (stereo not shown) [Compound 71], the inhibition at 1 µM came out at 56.8%. Turning to `CC1=C(c2cccc(O)c2)C(c2ccc(/C=C\CN3CC[C@@H](CO)C3)cc2)Oc2ccc(O)cc21` (stereo partly shown) [Compound 72], the inhibition at 1 µM was 31.9%. With `CC1=C(c2cc(O)cc(F)c2)C(c2ccc(/C=C\CN3CC[C@@H](C)C3)cc2)Oc2ccc(O)cc21` (stereo partly shown) [Compound 81], the inhibition at 1 µM was 77.4%. For `CC1=C(c2cc(F)cc(F)c2)C(c2ccc(/C=C\CN3CCN(C)CC3)cc2)Oc2ccc(O)cc21` (stereo not shown) [Compound 83], the inhibition at 1 µM was found to be 12.9%.

The assay is the same for the next values; noted with them: at 1 μM; MCF-7 cells plated in presence of estradiol (1 nM), five days incubation, Presto Blue viability.
As for `CC1=C(c2cccc(O)c2)C(c2ccc(/C=C\CN3CC[C@@H](CF)C3)cc2)Oc2ccc(O)cc21` (stereo partly shown) [Compound 55], the “% inhibition” value worked out at 67.1%. As to `CC1=C(c2cccc(O)c2)C(c2ccc(C#CCN(C)CCCCCCCCCC(F)F)cc2)Oc2ccc(O)cc21` (stereo not shown) [Compound 69], the “% inhibition” value is recorded as 19.8%.

For `CC1=C(c2cccc(O)c2)C(c2ccc(/C=C\CN3CC[C@@H](C)C3)cc2)Oc2ccc(O)cc21` (stereo partly shown) [Compound 75], the “% inhibition” value was determined as 74.4%. Same read-out and setting: for `CC1=C(c2cccc(O)c2)C(c2ccc(/C=C/CNCCCCCCCCCF)cc2)Oc2ccc(O)cc21` (stereo not shown) [Compound 79] the value was 64.8%. Turning to `CC1=C(c2cccc(O)c2)C(c2ccc(/C=C/CNCCCCCCCCCF)cc2)Oc2ccc(O)cc21` (stereo not shown) [Compound 80], the “% inhibition” value is 53%.
